Article PMC4920643 (Neuropharmacology, 2016)

Columns and labels:
5-HT3A receptors = target: T1, 5-HT3A receptors (Homo sapiens, UniProt P46098); type: cell-based
T1 construct: expressed in transfected cells; host or cells: Xenopus oocytes injected with cRNA (pGEMHE)
T1 sequence (P46098 24-478): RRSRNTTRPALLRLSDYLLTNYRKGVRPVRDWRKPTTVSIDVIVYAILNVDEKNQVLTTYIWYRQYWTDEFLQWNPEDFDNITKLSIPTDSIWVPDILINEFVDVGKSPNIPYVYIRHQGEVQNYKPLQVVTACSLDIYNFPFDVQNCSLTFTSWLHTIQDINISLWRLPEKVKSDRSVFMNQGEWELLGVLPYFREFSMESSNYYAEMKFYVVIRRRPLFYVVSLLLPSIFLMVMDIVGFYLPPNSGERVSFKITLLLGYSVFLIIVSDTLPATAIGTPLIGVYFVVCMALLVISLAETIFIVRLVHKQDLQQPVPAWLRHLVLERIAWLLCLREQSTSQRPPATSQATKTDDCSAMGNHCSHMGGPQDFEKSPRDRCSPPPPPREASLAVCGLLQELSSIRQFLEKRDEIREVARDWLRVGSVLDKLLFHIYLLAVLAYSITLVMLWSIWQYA

5-HT3 receptor [1] = conditions: cited from earlier work
5-HT3 receptor [2] = conditions: cited from earlier work; remark: listed apart in the source
α7 nACh receptors = conditions: cited from earlier work
[3] = target: nicotinic acetylcholine receptors; conditions: read-out: IC50, block of nicotinic acetylcholine receptors; cited from earlier work
5-HT3 receptors = conditions: cited from earlier work

NCCc1c[nH]c2ccc(O)cc12 [5-HT]
Hill slope of agonist concentration-response curve (5-HT3A receptors): 2.06 ± 0.14 | desensitisation time constant τ of inward current (5-HT3A receptors): 42 ± 5 s

CN1[C@@H]2C[C@@H](OC(=O)c3c[nH]c4ccccc34)C[C@H]1[C@@H]1O[C@@H]12 [SDZ-ICT 322]
pA2 (5-HT3 receptor [1]): 10.6 | pKd (5-HT3 receptor [2]): 9.2

CN1[C@@H]2C[C@@H](OC(=O)[C@H](CO)c3ccccc3)C[C@H]1[C@@H]1O[C@@H]12 [scopolamine]
expression of α7 nACh receptors (α7 nACh receptors): increases the expression | IC50 [3]: 928 µM

CN1C2CCC1CC(OC(=O)c1ccccc1)C2 (stereo not shown) [tropane benzoate]
affinity at 5-HT3 receptors (5-HT3 receptors): 63 nM
